# In patent US20240366624A1, “METHODS AND COMPOSITIONS FOR TREATING THROMBOTIC DISEASE” (Washington University, priority 2023, published 2024):
# Key:
# Water solubility = assay type: physicochemical
# ERO1α = biological target: T1, ERO1α (Homo sapiens, UniProt Q96HE7); assay: Bio-layer interferometry, B12-5 on biotinylated ERO1α biosensor; settings: read-out: KD, binding to ERO1α
# T1 sequence (Q96HE7 24-468): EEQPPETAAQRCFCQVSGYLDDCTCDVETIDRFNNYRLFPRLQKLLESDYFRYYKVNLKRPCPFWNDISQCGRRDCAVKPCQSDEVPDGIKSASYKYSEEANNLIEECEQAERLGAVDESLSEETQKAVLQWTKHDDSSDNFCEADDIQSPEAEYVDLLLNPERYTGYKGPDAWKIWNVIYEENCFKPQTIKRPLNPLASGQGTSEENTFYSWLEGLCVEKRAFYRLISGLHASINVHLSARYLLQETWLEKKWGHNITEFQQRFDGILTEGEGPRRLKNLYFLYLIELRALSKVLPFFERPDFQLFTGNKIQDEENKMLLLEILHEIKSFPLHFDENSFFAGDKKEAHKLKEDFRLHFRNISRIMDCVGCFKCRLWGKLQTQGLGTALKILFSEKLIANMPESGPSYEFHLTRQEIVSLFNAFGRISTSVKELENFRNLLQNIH
# Excerpt: FIG. 18(A-R) is an exemplary embodiment of novel small-molecule inhibitors recapitulating the defect in Ero1α (endoplasmic reticulum oxidoreductase 1a)-null platelets in accordance with the present disclosure. FIG. 18A: The structure of B12 and its inhibitory effect on ERO1α activity. FIG. 18(B-E): The inhibitory effect of B12 on P-selectin exposure and αIIbβ3 integrin activation in (FIG. 18B and FIG. 18C) mouse and (FIG. 18D and FIG. 18E) human platelets. FIG. 18F: The structure of B12-5 and its inhibitory effect on ERO1α activity. FIG. 18G: A docking model of B12-5-ERO1α (3AHQ) and flavin adenine dinucleotide (FAD)-ERO1α complex. There are pi-sulfur interactions of the phenothiazine head group (B112-5) or a tricyclic ring (FAD) with Met389 and Cys397. Also, there are H bond interactions between the tail/alkyl group and His255, Asn259, and Arg287. […] After incubation with a different concentration of B12-5, the specific interaction between B12-5 and ERO1α was measured by subtracting the nonspecific binding. The KD value was calculated from the Kon and Koff values. […] P values determined by ANOVA and Dunnett test (FIG. 18(B-E), FIG. 18(1-L), and FIG. 18(O-R) [for B12-5]) or Student t test (FIG. 18M, FIG. 18N, and FIG. 18(O-R) [for BAPTA (1,2-bis(o-aminophenoxy)ethane-N,N,N′,N′-tetraacetic acid)]). […]
compound,measurement,setting,value
O=C(CSc1nc(O)cc(O)n1)N1c2ccccc2Sc2ccccc21 [B12-5],water solubility,Water solubility,poor
same,Kd,ERO1α,12.9 ± 3.8 µM
